# Source: US9204640B2, “2-acyloxy-pyrrolin-4-ones” (BAYER INTELLECTUAL PROPERTY GMBH, priority 2011, dated 2015)
# Key:
# Assay type in all cases: in vivo
# [1] = system: Triticum aestivum; assay: Herbicidal post-emergence action, TRZAS
# Excerpt: (§1) • Seeds of monocotyledonous and dicotyledonous weed plants and crop plants are placed in wood-fiber pots in sandy loam and covered with soil. The test compounds, formulated in the form of wettable powders (WP) or emulsion concentrates (EC), are then, as an aqueous suspension with a water application rate of 600-800 l/ha (converted), with 0.1-0.2% of wetting agent added, applied at various dosages to the surface of the covering soil. • After the treatment, the pots are placed in a greenhouse and kept under good growth conditions for the test plants. […] Herbicidal Post-Emergence Action (Post) • Seeds of monocotyledonous and dicotyledonous weed and crop plants are placed in sandy loam in wood-fiber pots, covered with soil and cultivated in a greenhouse under good growth conditions. 2-3 weeks (stages 10-13 according to the BBCH scale) after sowing, the test plants are treated at a height of 5-10 cm. The test compounds, formulated as wettable powders (WP) or emulsion concentrates (EC), are then, with a water application rate of 600-800 l/ha (converted), with 0.1-0.2% of wetting agent added, sprayed at various dosages onto the green parts of the plants.
# (§2) AVEFA: Avena fatua LOLMU: Lolium multiflorum SETVI: Setaria viridis CHEAL: Chenopodium album VIOTR: Viola tricolor VERPE: Veronica persica ORYSA: Oryza sativa TRZAS: Triticum aestivum ZEAMX: Zea mays ALOMY: Alopecurus myosuroides DIGSA: Digitaria sanguinalis ECHCG: Echinocloa crus-galli SORHA: Sorghum halepense AVESA: Avena sativa AMARE: Amaranthus retroflexus SINAL: Sinapis alba STEME: Stellaria media
# [2] = system: Oryza sativa; assay: Herbicidal post-emergence action, ORYSA
# Excerpt: as §1, §2
# [3] = system: Zea mays; assay: Herbicidal post-emergence action, ZEAMX
# Excerpt: as §1, §2
# [4] = system: Alopecurus myosuroides; assay: Herbicidal post-emergence action, ALOMY
# Protocol: (§3) 2. Herbicidal Post-Emergence Action
# (§4) • Seeds of monocotyledonous and dicotyledonous weed and crop plants are placed in sandy loam in wood-fiber pots, covered with soil and cultivated in a greenhouse under good growth conditions. 2 to 3 weeks after sowing, the test plants are treated at the one-leaf stage. The test compounds, formulated as wettable powders (WP), are then, with a water application rate of 600 l/ha (converted), with 0.2% of wetting agent added, sprayed at various dosages onto the green parts of the plants. After the test plants have been kept in the greenhouse under optimum growth conditions for about 3 weeks, the activity of the preparations is rated visually in comparison to untreated controls (herbicidal activity in percent: 100% activity=the plants have died, 0% activity=like control plants). • In addition to the compounds mentioned above, the following compounds show an activity of 90-100% against Alopecurus myosuroides, Avena fatua, Digitaria sanguinalis, Echinocloa crus-galli, Lolium multiflorum, Setaria viridis and Sorghum halapense when applied by the post-emergence method at 320 g/ha: I-a-2, I-a-4, I-a-5, I-a-7, I-a-9, I-a-10, I-a-11, I-a-12, I-a-13, I-a-15. • In addition to the compounds mentioned above, the following compounds show an activity of 90-100% against Alopecurus myosuroides, Avena fatua, Echinocloa crus-galli, Lolium multiflorum and Setaria viridis when applied by the post-emergence method at 80 g/ha: I-a-1, I-b-2.
# as §1, §2
# [5] = system: Lolium multiflorum; assay: Herbicidal post-emergence action, LOLMU
# Protocol: as §3, §4, §1, §2
# [6] = system: Avena fatua; assay: Herbicidal post-emergence action, AVEFA
# Protocol: as §3, §4, §1, §2
# [7] = system: Myzus persicae; assay: Myzus test (MYZUPE spray treatment); settings: for effect in % (aphids killed): application rate 500 g/ha, after 5 days, Chinese cabbage leaf discs
# Protocol: Myzus Test (MYZUPE Spray Treatment) [table] To produce a suitable preparation of active compound, 1 part by weight of active compound is mixed with the stated amount of solvent and emulsifier, and the concentrate is diluted with emulsifier-containing water to the desired concentration. Discs of Chinese cabbage (Brassica pekinensis) infected by all stages of the green peach aphid (Myzus persicae) are sprayed with an active compound preparation of the desired concentration. After 5 days, the effect in % is determined 100% means that all of the aphids have been killed; 0% means that none of the aphids have been killed. Myzus Test (MYZUPE Spray Treatment) To produce a suitable preparation of active compound, 1 part by weight of active compound is mixed with the stated amount of solvent and emulsifier, and the concentrate is diluted with emulsifier-containing water to the desired concentration. Discs of Chinese cabbage (Brassica pekinensis) infected by all stages of the green peach aphid (Myzus persicae) are sprayed with an active compound preparation of the desired concentration. After the desired period of time, the activity in % is determined. 100% means that all of the aphids have been killed; 0% means that none of the aphids have been killed.
# [8] = system: Tetranychus urticae; assay: Tetranychus test (TETRUR spray treatment; OP-resistant in Example 10); settings: for effect in % (spider mites killed): after 5 days, bean leaf discs
# Protocol: Tetranychus Test (TETRUR Spray Treatment)
# To produce a suitable preparation of active compound, 1 part by weight of active compound is mixed with the stated amount of solvent and emulsifier, and the concentrate is diluted with emulsifier-containing water to the desired concentration. Discs of bean leaves (Phaseolus vulgaris) which are infested by all stages of the greenhouse red spider mite (Tetranychus urticae) are sprayed with an active compound preparation of the desired concentration.
# After 5 days, the effect in % is determined. 100% means that all of the spider mites have been killed; 0% means that none of the spider mites have been killed.
# Tetranychus Test, OP-Resistant (TETRUR Spray Treatment)
# To produce a suitable preparation of active compound, 1 part by weight of active compound is mixed with the stated amount of solvent and emulsifier, and the concentrate is diluted with emulsifier-containing water to the desired concentration.
# Discs of bean leaves (Phaseolus vulgaris) which are infested by all stages of the greenhouse red spider mite (Tetranychus urticae) are sprayed with an active compound preparation of the desired concentration.
# After the desired period of time, the activity in % is determined. 100% means that all of the spider mites have been killed; 0% means that none of the spider mites have been killed.
# [9] = system: Phaedon cochleariae; assay: Phaedon test (PHAECO spray treatment); settings: for effect in % (beetle larvae killed): application rate 500 g/ha, after 7 days, Chinese cabbage leaf discs; for inhibition at 100 g/ha: Phaedon cochleariae, 168 h, 7dat
# Protocol: Phaedon Test ([…] Spray Treatment) [table] To produce a suitable preparation of active compound, 1 part by weight of active compound is mixed with the stated amount of solvent and emulsifier, and the concentrate is diluted with emulsifier-containing water to the desired concentration. Discs of Chinese cabbage (Brassica pekinensis) are sprayed with an active compound preparation of the desired concentration and, after drying, populated with larvae of the mustard beetle (Phaedon cochleariae). After 7 days, the effect in % is determined 100% means that all beetle larvae have been killed; 0% means that none of the beetle larvae have been killed. Phaedon Test ([…] Spray Treatment) To produce a suitable preparation of active compound, 1 part by weight of active compound is mixed with the stated amount of solvent and emulsifier, and the concentrate is diluted with emulsifier-containing water to the desired concentration. Discs of Chinese cabbage (Brassica pekinensis) are sprayed with an active compound preparation of the desired concentration and, after drying, populated with larvae of the mustard beetle (Phaedon cochleariae). After the desired period of time, the activity in % is determined. 100% means that all beetle larvae have been killed; 0% means that none of the beetle larvae have been killed.
# [10] = system: Echinocloa crus-galli; assay: Herbicidal post-emergence action, ECHCG
# Protocol: as §3, §4, §1, §2
# [11] = system: Boophilus microplus; assay: Boophilus microplus test (BOOPMI injection); settings: 20 μg/animal, after 7 days
# Protocol: Boophilus Microplus Test (BOOPMI Injection) [table] To prepare an appropriate active compound formulation, 10 mg of active compound are mixed with 0.5 ml of solvent and the concentrate is diluted with solvent to the desired concentration. The solution of active compound is injected into the abdomen (Boophilus microplus), and the animals are transferred into dishes and kept in a climatized room. The activity is assessed by deposition of fertile eggs. After 7 days, the effect in % is determined. 100% means that none of the ticks has laid any fertile eggs.
# [12] = system: Digitaria sanguinalis; assay: Herbicidal post-emergence action, DIGSA; settings: 80 g/ha
# Protocol: as §3, §4, §1, §2
# [13] = system: Setaria viridis; assay: Herbicidal post-emergence action, SETVI; settings: 80 g/ha
# Protocol: as §3, §4, §1, §2
# [14] = system: Sorghum halepense; assay: Herbicidal post-emergence action, SORHA; settings: for % Activity SORHA: 80 g/ha
# Protocol: as §3, §4, §1, §2
compound,measurement,setting,value
CCc1cc(Cl)cc(OC)c1C1=C(OC(=O)C(C)C)C2(CCCCC2)NC1=O,% Activity TRZAS,"[1]; concentration 80 g/ha 20 g/ha, first TRZAS column",0%
same,% Activity TRZAS,"[1]; concentration 80 g/ha 20 g/ha, second TRZAS column",0%
same,% Activity ORYSA,[2]; concentration 80 g/ha 20 g/ha,0%
same,% Activity ZEAMX,[3]; concentration 80 g/ha 20 g/ha,20%
same,% Activity ALOMY,[4]; concentration 80 g/ha 20 g/ha,40%
same,% Activity LOLMU,[5]; concentration 80 g/ha 20 g/ha,50%
same,% Activity AVEFA,[6]; concentration 80 g/ha 20 g/ha,20%
CCC(C)(C)C(=O)OC1=C(c2cc(C)ccc2C)C(=O)N[C@]12CC[C@@H](OC)CC2,inhibition at 20 g/ha,"[7]; Myzus persicae, 120 h, 20 g/ha, 5dat",0%
same,inhibition at 500 g/ha,"[8]; Tetranychus urticae, 120 h, 500 g/ha, 5dat, OP-resistant",0%
CCc1cc(C)cc(Br)c1C1=C(OC(=O)C(C)C)NC(C)(C)C1=O [Example I-a-1],effect in % (beetle larvae killed),[9],83%
same,effect in % (aphids killed),[7],90%
CCOC(=O)OC1=C(c2cc(C)ccc2C)C(=O)N[C@@]12CCC[C@@H](COC)C2 [I-1-c-2 known from WO 07/048545],inhibition at 100 g/ha,[9],50%
same,inhibition at 4 g/ha,"[7]; Myzus persicae, 120 h, 5dat",0%
CCc1cc(Br)cc(C)c1C1=C(OC(=O)C(C)(C)C)NC2(CCC(OC)CC2)C1=O (centres unmarked) [I-a-5],% Activity ECHCG,[10]; 20 g/ha,80%
CCCc1cc(Br)cc(Br)c1C1=C(OC(=O)C(C)(C)C)NC(C)(C)C1=O [I-a-11],effect in % (beetle larvae killed),[9],83%
CCc1cc(Br)cc(Cl)c1C1=C(OC(=O)C(C)(C)C)NC2(CCCCC2)C1=O [I-a-14],% Activity TRZAS,[1]; 80 g/ha,90%
same,efficacy in % (deposition of fertile eggs),[11],80%
same,% Activity ORYSA,[2]; 80 g/ha,80%
same,effect in % (beetle larvae killed),[9],100%
same,% Activity ZEAMX,[3]; 80 g/ha,100%
same,% Activity ECHCG,[10]; 80 g/ha,100%
same,% Activity DIGSA,[12],100%
same,% Activity SETVI,[13],100%
same,% Activity ALOMY,[4]; 80 g/ha,80%
same,% Activity LOLMU,[5]; 80 g/ha,100%
same,effect in % (aphids killed),[7],90%
same,effect in % (spider mites killed),[8]; application rate 500 g/ha,90%
same,% Activity SORHA,[14],100%
same,% Activity SORHA,[14]; second SORHA column,90%
same,% Activity AVEFA,[6]; 80 g/ha,100%
CCC(C)(C)C(=O)OC1=C(c2cc(C)ccc2C)C(=O)C2(CCC(OC)CC2)N1 (centres unmarked) [I-a-16],% Activity MYZUPE,"[7]; 20 g/ha, 5dat",100%
same,effect in % (aphids killed),[7],100%
same,% Activity TETRUR,"[8]; 500 g/ha, 5dat, OP-resistant",90%
same,effect in % (spider mites killed),[8]; application rate 500 g/ha,90%
CCOC(=O)OC1=C(c2cc(C)ccc2C)C(=O)[C@@]2(CCC[C@H](COC)C2)N1 [I-b-1],efficacy in % (deposition of fertile eggs),[11],95%
same,inhibition at 100 g/ha,[9],100%
same,effect in % (beetle larvae killed),[9],100%
same,inhibition at 4 g/ha,"[7]; Myzus persicae, 120 h, 5dat",90%
same,effect in % (aphids killed),[7],100%
same,effect in % (spider mites killed),[8]; application rate 100 g/ha,100%
CCc1cc(Br)cc(C)c1C1=C(OC(=O)C(C)(C)C)C2(CCC(OC)CC2)NC1=O (centres unmarked) [I-b-2 known from WO 05/006125],inhibition at 20 g/ha,"[10]; Echinochloa crus-galli, post-emergence, 20 g/ha",50%
CCOC(=O)OC1=C(c2cc(C)c(Cl)cc2C)C(=O)C2(CCC(COC)CC2)N1 (centres unmarked) [I-b-4],effect in % (aphids killed),[7],90%
CCOC(=O)OC1=C(c2c(CC)cc(C)cc2C2CC2)C(=O)C(C)(C)N1 [I-b-5],effect in % (aphids killed),[7],100%
CCc1cc(Br)cc(Cl)c1C1=C(OC(=O)C(C)(C)C)C2(CCCCC2)NC1=O [I-b-41 known from WO 04/065366],inhibition at 80 g/ha,"[1]; Triticum aestivum, post-emergence, 80 g/ha",0%
same,inhibition at 80 g/ha,"[2]; Oryza sativa, post-emergence, 80 g/ha",0%
same,inhibition at 80 g/ha,"[3]; Zea mays, post-emergence, 80 g/ha",0%
same,inhibition at 80 g/ha,"[10]; Echinochloa crus-galli, post-emergence, 80 g/ha",80%
same,inhibition at 80 g/ha,"[12]; Digitaria sanguinalis, post-emergence",0%
same,inhibition at 80 g/ha,"[13]; Setaria viridis, post-emergence",0%
same,inhibition at 80 g/ha,"[4]; Alopecurus myosuroides, post-emergence, 80 g/ha",0%
same,inhibition at 80 g/ha,"[5]; Lolium multiflorum, post-emergence, 80 g/ha",0%
same,inhibition at 80 g/ha,"[14]; Sorghum halepense, post-emergence",0%
same,inhibition at 80 g/ha,"[6]; Avena fatua, post-emergence, 80 g/ha",0%
